The values that follow are results of earlier work, collected in US9782416B2, “Pharmaceutical formulations of potassium ATP channel openers and uses thereof” (Essentialis, Inc., priority 2004, dated 2017).

The target of one data set is T1, KATP channel (Homo sapiens, UniProt Q09428).
T1 construct: host or cells: patients with hyperinsulinism or pancreatic insulinoma (endogenous channel)
The following applies: patients with hyperinsulinism and patients with pancreatic insulinoma.

In a further data set the target is Kir6.2/SUR1 channel (Rattus norvegicus, UniProt Q09429). The conditions noted are these: Dabrowski et al. 2002.
Chain of Kir6.2/SUR1 channel (Q09429 whole entry): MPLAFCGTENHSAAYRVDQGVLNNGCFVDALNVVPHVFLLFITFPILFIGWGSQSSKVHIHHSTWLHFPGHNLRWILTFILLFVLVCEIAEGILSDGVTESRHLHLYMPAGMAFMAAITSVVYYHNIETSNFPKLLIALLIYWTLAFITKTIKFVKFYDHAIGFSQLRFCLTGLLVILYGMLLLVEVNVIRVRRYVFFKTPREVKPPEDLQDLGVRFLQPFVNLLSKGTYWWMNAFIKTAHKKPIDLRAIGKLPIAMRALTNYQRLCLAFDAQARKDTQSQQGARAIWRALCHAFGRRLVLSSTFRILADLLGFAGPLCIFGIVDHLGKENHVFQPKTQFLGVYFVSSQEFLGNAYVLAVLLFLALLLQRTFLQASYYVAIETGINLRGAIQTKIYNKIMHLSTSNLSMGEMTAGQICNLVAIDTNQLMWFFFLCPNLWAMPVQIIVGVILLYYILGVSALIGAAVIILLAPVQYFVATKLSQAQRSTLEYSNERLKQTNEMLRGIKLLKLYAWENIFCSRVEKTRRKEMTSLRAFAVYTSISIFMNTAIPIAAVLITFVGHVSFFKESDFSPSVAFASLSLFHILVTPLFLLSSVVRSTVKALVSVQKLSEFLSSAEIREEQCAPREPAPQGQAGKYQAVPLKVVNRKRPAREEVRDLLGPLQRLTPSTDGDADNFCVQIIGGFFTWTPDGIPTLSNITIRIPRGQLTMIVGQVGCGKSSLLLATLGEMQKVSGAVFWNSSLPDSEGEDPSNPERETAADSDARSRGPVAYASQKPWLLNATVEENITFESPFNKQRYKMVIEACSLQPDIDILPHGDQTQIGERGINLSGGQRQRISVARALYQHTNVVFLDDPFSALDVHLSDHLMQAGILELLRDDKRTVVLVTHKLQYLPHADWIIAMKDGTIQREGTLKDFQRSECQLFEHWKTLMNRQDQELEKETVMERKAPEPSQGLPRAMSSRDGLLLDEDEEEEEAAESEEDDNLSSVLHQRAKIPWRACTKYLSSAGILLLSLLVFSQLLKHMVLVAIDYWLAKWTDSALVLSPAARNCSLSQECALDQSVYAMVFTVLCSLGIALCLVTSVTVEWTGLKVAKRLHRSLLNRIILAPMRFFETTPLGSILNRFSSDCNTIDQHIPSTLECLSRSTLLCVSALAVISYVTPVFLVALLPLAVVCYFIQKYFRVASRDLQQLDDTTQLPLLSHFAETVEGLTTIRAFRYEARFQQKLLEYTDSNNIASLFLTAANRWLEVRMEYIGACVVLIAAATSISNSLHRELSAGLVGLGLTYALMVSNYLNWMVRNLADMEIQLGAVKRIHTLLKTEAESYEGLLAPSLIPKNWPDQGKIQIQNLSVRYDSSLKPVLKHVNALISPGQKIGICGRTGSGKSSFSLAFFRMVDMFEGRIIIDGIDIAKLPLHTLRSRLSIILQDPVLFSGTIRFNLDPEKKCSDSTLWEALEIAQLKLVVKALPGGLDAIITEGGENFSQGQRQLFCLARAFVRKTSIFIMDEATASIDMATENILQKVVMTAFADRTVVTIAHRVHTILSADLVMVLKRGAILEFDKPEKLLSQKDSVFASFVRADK
Chain of Kir6.2/SUR1 channel (Q61743 whole entry partner): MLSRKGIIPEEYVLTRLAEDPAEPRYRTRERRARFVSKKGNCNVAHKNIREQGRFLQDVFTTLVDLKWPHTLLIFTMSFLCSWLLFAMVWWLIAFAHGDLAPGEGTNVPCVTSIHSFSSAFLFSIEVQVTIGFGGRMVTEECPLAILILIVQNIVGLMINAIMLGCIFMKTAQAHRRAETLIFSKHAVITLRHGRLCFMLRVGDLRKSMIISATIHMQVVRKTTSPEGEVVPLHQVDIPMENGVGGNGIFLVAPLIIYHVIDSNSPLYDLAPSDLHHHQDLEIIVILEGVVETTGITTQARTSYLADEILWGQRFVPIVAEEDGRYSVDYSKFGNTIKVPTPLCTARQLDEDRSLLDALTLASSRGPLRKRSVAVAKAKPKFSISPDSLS

T1 sequence (Q09428 whole entry): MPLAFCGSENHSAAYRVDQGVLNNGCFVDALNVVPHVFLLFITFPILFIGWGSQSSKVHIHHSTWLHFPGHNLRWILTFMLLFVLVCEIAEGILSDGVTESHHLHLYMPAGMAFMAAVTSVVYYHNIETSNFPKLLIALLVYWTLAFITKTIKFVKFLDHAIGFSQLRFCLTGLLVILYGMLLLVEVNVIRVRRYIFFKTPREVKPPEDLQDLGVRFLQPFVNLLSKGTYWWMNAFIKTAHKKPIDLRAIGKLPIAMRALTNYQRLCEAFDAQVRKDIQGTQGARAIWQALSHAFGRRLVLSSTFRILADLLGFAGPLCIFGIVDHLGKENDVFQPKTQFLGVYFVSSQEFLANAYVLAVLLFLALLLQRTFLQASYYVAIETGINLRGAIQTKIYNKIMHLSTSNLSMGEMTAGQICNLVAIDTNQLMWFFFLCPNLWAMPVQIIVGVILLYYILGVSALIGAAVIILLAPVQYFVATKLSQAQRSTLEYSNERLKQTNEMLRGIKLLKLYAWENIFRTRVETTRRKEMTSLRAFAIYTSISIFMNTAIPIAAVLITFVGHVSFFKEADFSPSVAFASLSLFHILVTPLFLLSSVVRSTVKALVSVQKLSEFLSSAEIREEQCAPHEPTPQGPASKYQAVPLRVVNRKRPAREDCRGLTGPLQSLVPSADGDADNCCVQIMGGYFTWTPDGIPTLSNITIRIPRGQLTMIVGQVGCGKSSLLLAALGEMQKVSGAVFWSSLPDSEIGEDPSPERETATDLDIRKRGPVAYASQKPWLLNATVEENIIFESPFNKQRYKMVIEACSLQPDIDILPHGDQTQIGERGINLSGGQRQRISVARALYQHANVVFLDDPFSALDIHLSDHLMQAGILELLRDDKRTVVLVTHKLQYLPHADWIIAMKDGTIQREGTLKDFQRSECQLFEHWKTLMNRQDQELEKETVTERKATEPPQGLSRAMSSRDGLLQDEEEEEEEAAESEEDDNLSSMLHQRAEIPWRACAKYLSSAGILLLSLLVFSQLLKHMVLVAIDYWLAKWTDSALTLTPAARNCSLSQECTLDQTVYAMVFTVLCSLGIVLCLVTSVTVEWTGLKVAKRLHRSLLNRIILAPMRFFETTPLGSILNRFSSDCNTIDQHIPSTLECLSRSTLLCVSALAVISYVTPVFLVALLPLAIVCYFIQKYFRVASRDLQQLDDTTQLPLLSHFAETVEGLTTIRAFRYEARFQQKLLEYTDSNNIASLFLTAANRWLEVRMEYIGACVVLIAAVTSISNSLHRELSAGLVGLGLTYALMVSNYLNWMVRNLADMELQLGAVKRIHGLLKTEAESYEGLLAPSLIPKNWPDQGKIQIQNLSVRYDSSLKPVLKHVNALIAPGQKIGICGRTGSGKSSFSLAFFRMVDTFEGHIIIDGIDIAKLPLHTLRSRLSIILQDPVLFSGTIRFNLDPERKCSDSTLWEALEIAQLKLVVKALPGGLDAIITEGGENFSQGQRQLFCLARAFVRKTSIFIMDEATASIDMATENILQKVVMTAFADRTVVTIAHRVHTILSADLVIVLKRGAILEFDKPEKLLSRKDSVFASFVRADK
T1 sequence (Q14654 whole entry partner): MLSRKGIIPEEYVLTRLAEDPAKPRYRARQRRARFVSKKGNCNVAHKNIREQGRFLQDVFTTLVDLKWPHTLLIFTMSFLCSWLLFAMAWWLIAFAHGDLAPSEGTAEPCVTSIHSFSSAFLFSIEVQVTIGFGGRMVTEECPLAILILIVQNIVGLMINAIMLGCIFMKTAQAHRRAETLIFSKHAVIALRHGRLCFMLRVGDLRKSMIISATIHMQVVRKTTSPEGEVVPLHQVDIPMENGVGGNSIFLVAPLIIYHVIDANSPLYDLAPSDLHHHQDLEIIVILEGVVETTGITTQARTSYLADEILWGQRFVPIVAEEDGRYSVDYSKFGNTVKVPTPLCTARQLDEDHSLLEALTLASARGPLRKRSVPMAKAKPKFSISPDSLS

As to `CC(C)N=C1Nc2cc(Cl)c(Cl)cc2S(=O)(=O)N1` [BPDZ 154], the “KATP channel activator activity” value at KATP channel was “effective KATP channel activator”. Consider `COc1ccc2c(c1)S(=O)(=O)N=C(NC(C)C)N2` [3-isopropylamino-7-methoxy-4H-1,2,4,-benzothiadiazine 1,1-dioxide], for which the channel opener selectivity entry on Kir6.2/SUR1 channel was “selective Kir6.2/SUR1 channel opener”.
